Entries after “also recorded” stand apart in the source; their conditions may differ. Read-outs that look alike come from different tables or passages of the source. Marks after values point to notes of the source that are not given here.
Legend:
[1] = system: MOLM14, KOPN8 and RCH-ACV cell lines; assay: Kinase inhibitor drug combination screen, summary over the three cell lines; details: for No. Cell Lines synergistically inhibited by drug 1 combined with AS and/or ART-838: >10% growth inhibition over the Bliss prediction, of three cell lines; for synergy with either AS or ART-838: growth inhibition of human leukemia cell lines
Method: Plates (3×384-well per set) contained 7 graded concentrations of each drug at 2× final concentration in culture media in 25 μl/well. […] Cells were plated such that each well contained 2500 cells (MOLM14) or 5000 cells (KOPN8 and RCH-ACV). […] Each plate contained two positive control wells used for background subtraction. Each plate also contained 45 wells without any drug. The background-subtracted absorbance for each well was normalized to the average of the no-drug wells from the corresponding vehicle plate.
Hits were ranked by the observed inhibition over the Bliss independence prediction.
Combinations with positive values for this Bliss difference were considered synergistic, values near zero, additive, and negative values, antagonistic.

MOLM14 cells [2] = assay: Chou-Talalay drug combination analysis (alamarBlue) of AS or ART-838 with antileukemic drugs; assay type: cell-based, human; details: simultaneous 48 h, each drug at 2.25× single-drug IC50, CI<1 synergy, =1 additivity, >1 antagonism
Method: For each two-drug pair, dose-response curves were generated for each drug individually and for the two drugs combined. […] This design is based on the recommendation of Chou that combination experiments be performed with drugs combined in an equipotent ratio based on their respective single-drug IC50 values. Following a 48-hour incubation with each drug or drug pair, cytotoxicity assays were performed using alamarBlue as described above.
Each set of drug combinations was tested in at least three independent experiments, each in triplicate.
Sequences are depicted at the bottom of FIG. 5.

[3] = system: mitochondrial superoxide in MOLM14 cells; assay: Mitochondrial superoxide (MitoSOX Red, flow cytometry); assay type: cell-based, human; details: 16 h; for mitochondrial superoxide generation, drug alone: 2.25× approximate 48 h IC50, MitoSox MFI; for effect of the drug on ART-838-induced superoxide: drug combined with ART-838, each at 2.25× approximate 48 h IC50; for effect of the drug on AS-induced superoxide: drug combined with AS, each at 2.25× approximate 48 h IC50
Method: FIGS. 4A-4D. Effects of ART-838- and AS-containing drug combinations on MOLM14 growth and superoxide generation. […] CIs were computed as described above. CI<1 indicates synergy, CI=1, additivity, CI>1, antagonism. […] Cells were then loaded with 5 μM MitoSox for 30 min, washed, and analyzed by flow cytometry for MitoSox fluorescence (indicating mitochondrial superoxide) in the FL2 channel. Mean fluorescence intensity (MFI) was normalized to that of vehicle control (0.5% DMSO) with no pretreatment (100%, lower dotted lines). Upper dotted lines show MFI of ART-838- or AS-treated cells. Error bars represent the SEM of three independent experiments.
Cells were pretreated with NAC, Tiron, DFO, or vehicle then treated with AS, ART-838, or vehicle, as described above, then following a 16-hour drug treatment, cells were loaded with 5 μM MitoSOX Red (Invitrogen, Carlsbad, Calif.) for 30 minutes at 37° C. with 5% CO2, then analyzed using the FL2 channel of an Accuri C6 flow cytometer.
As both ART-838 and AS increased mitochondrial superoxide, and many antineoplastic drugs induce ROS generation, mitochondrial superoxide levels of MOLM14 cells treated with each of the above six antileukemic drugs were evaluated, alone and in combination with ART-838 or AS. All six drugs induced mitochondrial superoxide, although to a much lesser extent than did ART-838 (FIG. 4B) or AS (FIG. 4D).

MOLM14 cells [4] = assay: alamarBlue cytotoxicity assay, single drugs, 48 h; assay type: cell-based; details: Homo sapiens, MOLM-14, MOLM14, 48 h, means of at least three experiments
Method: Cytotoxicity was assessed using alamarBlue assays (Life Technologies, Grand Island, N.Y.; used for IC50 determinations and all drug combinations except the drug combination screen (method described separately below)) or Trypan Blue dye exclusion (Life Technologies, Grand Island, N.Y.; used for experiments using inhibitors that could interfere with alamarBlue assay performance (NAC, Tiron, DFO)).
(§1) Cell lines were seeded in 96-well tissue culture plates at 10^4 cells per well (myeloid leukemia lines) or 2×10^4 cells per well (lymphoid leukemia lines) in culture medium, followed by addition of drugs at the indicated concentrations. 2-4 wells per plate containing media-only were included for background subtraction. Peripheral wells were filled with sterile water to minimize the effects of evaporation.
Results were normalized to cells treated with vehicle (0.5% DMSO) alone. IC50s were calculated using CompuSyn software and represent the means of at least three experiments performed in triplicate.

[5] = system: MOLM14-luc AML xenografts; assay: Subcutaneous MOLM14-luc xenograft growth, ARA with ART-838; assay type: in vivo, NSG mice; details: tumor size on day 24; Ara-C 40 mg/kg/d i.p., ART-838 200 mg/kg/d p.o.
Method: Ara-C (40 mg/kg/d) was given i.p. on day 17, 18, 19, 20, 21 and 24. […] Mouse tumors were measured on the indicated days.
Highly immunodeficient NSG mice, obtained originally from Jackson Laboratory (Bar Harbor, Me.), were bred and housed in the UMSOM animal facilities, and handled in a laminar flow hood under aseptic conditions. […] For the human AML xenograft model, 6-12-week-old male NSG mice (>20 g) were transplanted sc with MOLM14-luc cells on day 0 and drug-treated via oral gavage, as specified in legend. Mice were monitored daily and euthanized when tumors reached an estimated mass of 2000 mg (using the formula: [length×width2]/2, assuming density=1 mg/mm3) [64].
Palpable tumors (approximately 100 mg tumor mass) appeared in mice about 2 weeks after transplantation. Mouse tumors were measured with calipers on the indicated days.

human AML cell lines = assay: In vitro efficacies of artemisinin derivatives against human AML cell lines; assay type: cell-based
Method: as §1
A novel trioxane dimer allyloxime-631 (ART631) has been designed to further extend in vivo T1/2 without sacrificing antimalarial activity.

in vivo = details: NRG (NOD-Rag1null IL2rgnull), mouse, in vivo, po
Description: FIG. 24. Concentration-time profile for 2C-ARTs with PK parameters.
FIG. 25A-25C. […] NOD-Rag1^nullIL2rg^null (NRG) mice were transplanted IV with Luc-labelled MV4; 11 cells on d10. […] FIG. 25A) MTD cyclic drug treatment schema.

MOLM14 cells [6] = assay: Combinations of AS, ART-838 or DHA with ABT-199, ABT-263 or ABT-737 (alamarBlue, 48 h); assay type: cell-based; details: Homo sapiens, MOLM-14; for inhibition at 0.037 µM: MOLM14
Method: FIG. 12. […] Then cytotoxicity was evaluated by alamarBlue assays. Each experiment was performed in triplicate.
MOLM14 or KOPN8 cells were seeded in 96-well plates as described above for alamarBlue assays. […] AlamarBlue assays were performed as described above. Each set of drugs or drug combinations was tested in triplicate. Chou-Talalay drug combination analysis was performed as above.

MCL1 = assay: Western blot of MCL1 protein levels; assay type: cell-based, human; details: acute leukemia / AML cell lines
Method: FIG. 22. ART631 increased ROS and CHOP levels, and reduced MCL1 protein levels. A) MOLM14 AML cells were pre-loaded with 5 mM ROS detection reagent CM-H2DCFDA for 30 m, pretreated with 11 mM for DFO for 60 m, then cultured with 200 nM ART631 or vehicle (DMSO) for 18 h and analyzed by flow cytometry. […] Protein was Western blotted as in FIG. 21. MCL1 protein levels were decreased and CHOP protein levels increased. C) From MOLM14 AML cells cultured as above, total RNA was isolated, cDNA synthesized, and SYBR Green qRT-PCR performed in triplicates. Ct values were normalized to housekeeping gene GAPDH and fold-change computed relative to vehicle control. DDIT3 mRNA (encoding CHOP protein) was increased. MV4; 11 AML and ML2 AML cell lines were tested with similar results.
(§2) To add to the efficacy of this ART838 plus ABT199 treatment regimen, rational addition of a third low-toxicity active antileukemic agent was investigated.
Many acute myeloid leukemia (AML) cell lines express MCL1±BCL2 (FIG. 21). As with other ARTs, ART631 elevates AML cellular ROS (FIG. 22A), which is reduced by the iron chelator desferrioxamine (DFO). […] Culture of AML cells with ARTs increased CHOP protein and DDIT3 mRNA (encodes CHOP) levels (FIG. 22C).

MOLM14 AML xenografts = assay: Subcutaneous MOLM14 xenograft growth, SOR with AS; assay type: in vivo, NSG mice; details: tumor size on day 24; drugs p.o.
Method: FIG. 15. AS enhanced in vivo efficacy of Sorafenib (SOR) against acute leukemia xenografts in NSG mice. […] Drug or vehicle were given p.o. on day 3-7, 17-21, and 31-35 when possible. Mouse tumors were measured on the indicated days.
The NSG mice were obtained, maintained and handled as described in the paragraph immediately above. AS was also formulated in Tween 80:ethanol (7:3, v:v) and diluted 1:10 in filtered deionized water immediately before administration. For the human AML xenograft model, 6-12-week-old male NSG mice (>20 g) were transplanted sc with MOLM14 cells on day 0 and drug-treated via oral gavage, as specified in legend. Mice were monitored daily and euthanized when tumors reached an estimated mass of 2000 mg as described in the paragraph immediately above.
Palpable tumors appeared about 2 weeks after transplantation.

[7] = system: acute leukemia xenografts; assay: Acute leukemia xenografts treated with ART838 two-drug combinations; assay type: in vivo; details: compared to vehicle or single drugs
Description: as §2

O=C(Nc1cccc(C(F)(F)F)c1)Nc1cc(S(=O)(=O)NC2CC2)ccc1-c1ccsc1 [AGI6780]
No. Cell Lines synergistically inhibited by drug 1 combined with AS and/or ART-838 [1]: 2/3**

CN(C)CC[C@H](CSc1ccccc1)Nc1ccc(S(=O)(=O)NC(=O)c2ccc(N3CCN(Cc4ccccc4-c4ccc(Cl)cc4)CC3)cc2)cc1[N+](=O)[O-] [ABT-737]
No. Cell Lines synergistically inhibited by drug 1 combined with AS and/or ART-838 [1]: 3/3 | synergy with either AS or ART-838 [1]: Particularly strong synergy

Nc1ncnc2c1c(-c1cccc(OCc3ccccc3)c1)cn2C1CC(CN2CCCC2)C1 (stereo not shown) [NVP-ADW742]
No. Cell Lines synergistically inhibited by drug 1 combined with AS and/or ART-838 [1]: 2/3

C[C@]12O[C@H](C[C@]1(O)CO)n1c3ccccc3c3c4c(c5c6ccccc6n2c5c31)CNC4=O [LES, lestaurtinib]
combination index (CI) of the drug combined with AS (MOLM14 cells [2]): 1.5

C[C@@H](Oc1cc(-c2cnn(C3CCNCC3)c2)cnc1N)c1c(Cl)ccc(F)c1Cl [Crizotinib]
No. Cell Lines synergistically inhibited by drug 1 combined with AS and/or ART-838 [1]: 2/3**

CCc1cc(Nc2nccc(-c3c(-c4ccc(OC)c(C(=O)Nc5c(F)cccc5F)c4)nc4ccccn34)n2)c(OC)cc1N1CCC(N2CCN(S(C)(=O)=O)CC2)CC1 [GSK-1904529A]
No. Cell Lines synergistically inhibited by drug 1 combined with AS and/or ART-838 [1]: 3/3

CC1(C)CCC(c2ccc(Cl)cc2)=C(CN2CCN(c3ccc(C(=O)NS(=O)(=O)c4ccc(N[C@H](CCN5CCOCC5)CSc5ccccc5)c(S(=O)(=O)C(F)(F)F)c4)cc3)CC2)C1 [ABT-263, navitoclax]
synergy with either AS or ART-838 [1]: Particularly strong synergy

COc1cccc2c1C(=O)c1c(O)c3c(c(O)c1C2=O)C[C@@](O)(C(=O)CO)C[C@@H]3O[C@H]1C[C@H](N)[C@H](O)[C@H](C)O1 [DOX, doxorubicin]
mitochondrial superoxide generation, drug alone [3]: induced mitochondrial superoxide generation | effect of the drug on ART-838-induced superoxide [3]: further enhanced | effect of the drug on AS-induced superoxide [3]: further enhanced

O=S(=O)(NCCNC/C=C/c1ccc(Br)cc1)c1cccc2cnccc12 [H-89]
No. Cell Lines synergistically inhibited by drug 1 combined with AS and/or ART-838 [1]: 2/3

COc1cc([C@@H]2c3cc4c(cc3[C@@H](O[C@@H]3O[C@@H]5CO[C@@H](C)O[C@H]5[C@H](O)[C@H]3O)[C@H]3COC(=O)[C@H]23)OCO4)cc(OC)c1O [ETO, etoposide]
mitochondrial superoxide generation, drug alone [3]: induced mitochondrial superoxide generation | effect of the drug on ART-838-induced superoxide [3]: further enhanced | effect of the drug on AS-induced superoxide [3]: further enhanced | IC50 (MOLM14 cells [4]): 242 nM

COc1ccc(COc2ccc(Cc3cnc(N)nc3N)cc2OC)cc1 [GW-2580]
No. Cell Lines synergistically inhibited by drug 1 combined with AS and/or ART-838 [1]: 2/3

Cc1ccc(S(=O)(=O)OCC(=O)Nc2ccc(C(=O)O)c(O)c2)cc1 [S31-201]
No. Cell Lines synergistically inhibited by drug 1 combined with AS and/or ART-838 [1]: 2/3

Nc1ccn([C@@H]2O[C@H](CO)[C@@H](O)[C@@H]2O)c(=O)n1 [ARA, cytarabine]
tumor growth inhibition, ARA plus ART-838 versus either drug alone [5]: inhibited tumor growth substantially more than did either drug alone | mitochondrial superoxide generation, drug alone [3]: induced mitochondrial superoxide generation | effect of the drug on AS-induced superoxide [3]: further enhanced | IC50 (MOLM14 cells [4]): 286 nM

C[C@H]1[C@H](OC(=O)CCC(=O)O)O[C@@H]2O[C@@]3(C)CC[C@H]4[C@H](C)CC[C@@H]1[C@@]24OO3 [AS, artesunate]
IC50 (human AML cell lines; median over the human AML cell lines tested (11 for AS and ART838, 4 for ART631), read-out: IC50 median): 1720 nM | IC50 (human AML cell lines; range over the human AML cell lines tested (11 for AS and ART838, 4 for ART631), read-out: IC50 range): 796 to 6260 nM | MTD at 5 d (in vivo): 200 mg/kg/day | IC50 (MOLM14 cells [6]; MOLM14 (AML) cell line): 825 nM | mitochondrial superoxide generation, drug alone [3]: induced mitochondrial superoxide generation

CC1(C)CCC(CN2CCN(c3ccc(C(=O)NS(=O)(=O)c4ccc(NCC5CCOCC5)c([N+](=O)[O-])c4)c(Oc4cnc5[nH]ccc5c4)c3)CC2)=C(c2ccc(Cl)cc2)C1 [ABT-199, venetoclax]
inhibition at 0.037 µM (MOLM14 cells [6]; 37 nM ABT-199 + 25 nM ART-838, read-out: growth inhibition, ABT-199 together with ART-838): 100% | inhibition at 0.037 µM (MOLM14 cells [6]; 37 nM ABT-199 + 825 nM AS, read-out: growth inhibition, ABT-199 together with AS): 100% | average inhibition over the Bliss predictions, ABT-199 plus ART-838 ([1]; average of 3/3 cell lines): 21% | average inhibition over the Bliss predictions, ABT-199 plus AS ([1]; average of 3/3 cell lines): 17%

Cn1cc(-c2ccc3nnc(C(F)(F)c4ccc5ncccc5c4)n3n2)cn1 [JNJ-38877605]
No. Cell Lines synergistically inhibited by drug 1 combined with AS and/or ART-838 [1]: 2/3

CNC(=O)c1cc(Oc2ccc(NC(=O)Nc3ccc(Cl)c(C(F)(F)F)c3)cc2)ccn1 [SOR, sorafenib]
MCL1 protein levels (MCL1): large reductions; also recorded: downregulates | tumor growth inhibition, AS plus SOR versus either drug alone (MOLM14 AML xenografts): inhibited tumor growth substantially more than did either drug alone | effect of the drug on AS-induced superoxide [3]: reduced | leukemia xenograft growth rates, drug combined with ART838 [7]: reduced leukemia xenograft growth rates | survival, drug combined with ART838 [7]: prolonged survivals
